For this assay, the target named is human PCSK9 (Homo sapiens, UniProt Q8NBP7). The assay can be described thus: PCSK9 ligand binding assay (TR-FRET): interference with binding of human PCSK9 to human LDLR. To be noted: for IC50: Human PCSK9 Alexa Fluor 647 / Human LDLR extracellular domain-Europium Kryptate; for Max % inhibition: efficacy (Amax), 100% = 1 uM unlabeled human PCSK9, 0% = DMSO. The gist of the method:
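Read-out was TR-FRET ratio (665 nm over 615 nm, 330 nm excitation) between Alexa Fluor 647-human PCSK9 (16 nM added) and Europium Kryptate-human LDLR ectodomain (4 nM added). Compound and PCSK9 were mixed 30 min before LDLR, then incubated 2 h. Inhibition was normalised to DMSO and unlabelled-PCSK9 controls, giving IC50 and Amax.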

As a reminder, the IC50 is the point on the concentration scale where inhibition reaches its midpoint.

human PCSK9, sequence (Q8NBP7 153-692): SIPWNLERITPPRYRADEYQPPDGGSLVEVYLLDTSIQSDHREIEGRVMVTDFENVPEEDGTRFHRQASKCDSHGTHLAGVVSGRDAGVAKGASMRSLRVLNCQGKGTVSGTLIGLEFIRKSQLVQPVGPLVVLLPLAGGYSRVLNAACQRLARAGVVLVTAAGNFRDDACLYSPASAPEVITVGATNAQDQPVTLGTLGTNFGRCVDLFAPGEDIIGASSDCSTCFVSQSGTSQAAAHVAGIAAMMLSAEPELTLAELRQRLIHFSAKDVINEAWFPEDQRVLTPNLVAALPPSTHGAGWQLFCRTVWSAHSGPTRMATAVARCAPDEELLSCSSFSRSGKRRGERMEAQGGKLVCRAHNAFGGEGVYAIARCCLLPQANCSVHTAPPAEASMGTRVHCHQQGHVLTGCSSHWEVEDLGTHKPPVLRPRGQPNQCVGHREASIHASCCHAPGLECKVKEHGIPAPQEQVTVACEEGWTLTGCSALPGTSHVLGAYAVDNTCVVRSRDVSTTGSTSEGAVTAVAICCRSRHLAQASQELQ
human PCSK9, sequence (Q8NBP7 31-152 partner limits assumed): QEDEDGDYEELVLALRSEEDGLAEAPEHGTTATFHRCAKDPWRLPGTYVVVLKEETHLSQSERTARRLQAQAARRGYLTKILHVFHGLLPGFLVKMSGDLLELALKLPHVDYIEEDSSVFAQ

For the molecule `C[C@H](c1ncc(-c2ccc(Oc3cc(Cl)ccc3CN3C(=O)C[C@@H]([C@@H]4CCc5ccccc54)C(=O)N4CCC[C@@](Cc5ccc(Cl)cc5)(C4)NC(=O)[C@H](CO)NC(=O)[C@@H]3C)cc2)n1C)N(C)C.Cl` [Compound 70, (3S, 7S,10S, 13R)-6-(4-chloro-2-(4-(2-((R)-1-(dimethylamino)ethyl)-1-methyl-1H-imidazol-5-yl)phenoxy)benzyl)-13-(4-chlorobenzyl)-3-((S)-2,3-dihydro-1H-inden-1-yl)-10-(hydroxymethyl)-7-methyl-1,6,9,12-tetraazabicyclo[11.3.1]heptadecane-2,5,8,11-tetraone], the IC50 is 1.48 nM and the Max % inhibition is on record as 110.7%.

On to `C[C@H]1C(=O)N[C@@H](CO)C(=O)N(C)[C@@]2(Cc3ccc(Cl)cc3)CCCN(C2)C(=O)[C@H](Cc2ccccc2)CC(=O)N1Cc1ccc(Cl)cc1Oc1ccc(-c2cnc(CN(C)C)n2C)nc1` [Compound 71], for which the IC50 turned out to be 0.754 nM and the Max % inhibition amounted to 102.6%.

With `COC[C@@H]1NC(=O)[C@H](C)N(Cc2ccc(Cl)cc2Oc2ccc(-c3cnc(CN4CC[C@H](N(C)C)C4)n3C)cc2)C(=O)C[C@@H](Cc2ccccc2)C(=O)N2CCC[C@@](Cc3ccc(Cl)cc3)(C2)NC1=O.Cl` [Compound 72, (3R, 7S, 10S, 13R)-3-benzyl-6-(4-chloro-2-(4-(2-(((S)-3-(dimethylamino)pyrrolidin-1-yl)methyl)-1-methyl-1H-imidazol-5-yl)phenoxy)benzyl)-13-(4-chlorobenzyl)-10-(methoxymethyl)-7-methyl-1,6,9,12-tetraazabicyclo[11.3.1]heptadecane-2,5,8,11-tetraone], the IC50 came to 0.837 nM and the Max % inhibition came to 100.1%.

`C[C@H]1C(=O)N[C@@H](CO)C(=O)N[C@@]2(Cc3ccc(Cl)cc3)CCCN(C2)C(=O)[C@H]([C@@H]2CCc3ccccc32)CC(=O)N1Cc1cc(F)ccc1Oc1ccc(-c2cnc(CN(C)C)n2C)cc1` [Compound 73]: the IC50 came out at 1.36 nM and the Max % inhibition is 95.0%.

On to `C[C@H]1C(=O)N[C@@H](CO)C(=O)N[C@@]2(Cc3ccc(Cl)cc3)CCCN(C2)C(=O)[C@H]([C@@H]2CCc3ccccc32)CC(=O)N1Cc1ccc(Cl)cc1Oc1ccc(-c2cnc(CN3CCCC3)n2C)cc1.Cl` [Compound 74, (3S, 7S, 10S, 13R)-6-(4-chloro-2-(4-(1-methyl-2-(pyrrolidin-1-ylmethyl)-1H-imidazol-5-yl)phenoxy)benzyl)-13-(4-chlorobenzyl)-3-((S)-2,3-dihydro-1H-inden-1-yl)-10-(hydroxymethyl)-7-methyl-1,6,9,12-tetraazabicyclo[11.3.1]heptadecane-2,5,8,11-tetraone], for which the IC50 was determined as 1.73 nM and the Max % inhibition was 99.1%.

Regarding `C[C@H]1C(=O)N[C@@H](CO)C(=O)N[C@@]2(Cc3ccc(Cl)cc3)CCCN(C2)C(=O)[C@H](Cc2ccccc2)CC(=O)N1Cc1c(F)cc(F)cc1Oc1ccc(-c2cnc(CN3CCCC3)n2C)cc1` [Compound 75, (3R, 7S, 10S, 13R)-3-benzyl-13-(4-chlorobenzyl)-6-(2,4-difluoro-6-(4-(1-methyl-2-(pyrrolidin-1-ylmethyl)-1H-imidazol-5-yl)phenoxy)benzyl)-10-(hydroxymethyl)-7-methyl-1,6,9,12-tetraazabicyclo[11.3.1]heptadecane-2,5,8,11-tetraone], the IC50 came out at 0.758 nM and the Max % inhibition was found to be 113.3%.

Consider `COC[C@@H]1NC(=O)[C@H](C)N(Cc2ccc(Cl)cc2Oc2ccc(-c3cnc(CN4CCN(C)CC4)n3C)cc2)C(=O)C[C@@H](Cc2ccccc2)C(=O)N2CCC[C@@](Cc3ccc(Cl)cc3)(C2)NC1=O.Cl` [Compound 76, (3R, 7S, 10S, 13R)-3-benzyl-6-(4-chloro-2-(4-(1-methyl-2-((4-methylpiperazin-1-yl)methyl)-1H-imidazol-5-yl)phenoxy)benzyl)-13-(4-chlorobenzyl)-10-(methoxymethyl)-7-methyl-1,6,9,12-tetraazabicyclo[11.3.1]heptadecane-2,5,8,11-tetraone], for which the IC50 stood at 0.81 nM and the Max % inhibition was found to be 101.7%.

For the molecule `C[C@H]1C(=O)N[C@@H](CO)C(=O)N[C@@]2(Cc3ccc(Cl)cc3)CCCN(C2)C(=O)[C@H]([C@@H]2CCc3ccccc32)CC(=O)N1Cc1ccc(Cl)cc1Oc1ccc(-c2cnc(C3=CCN(C)C3)n2C)cc1.Cl` [Compound 77, (3S,7S,10S,13R)-6-(4-chloro-2-(4-(1-methyl-2-(1-methyl-2,5-dihydro-1H-pyrrol-3-yl)-1H-imidazol-5-yl)phenoxy)benzyl)-13-(4-chlorobenzyl)-3-((S)-2,3-dihydro-1H-inden-1-yl)-10-(hydroxymethyl)-7-methyl-1,6,9,12-tetraazabicyclo[11.3.1]heptadecane-2,5,8,11-tetraone hydrochloride], the IC50 was found to be 0.979 nM and the Max % inhibition came to 71.9%.

Turning to `C[C@H]1C(=O)N[C@@H](CO)C(=O)N(C)[C@@]2(Cc3ccc(Cl)cc3)CCCN(C2)C(=O)[C@H](Cc2ccccc2)CC(=O)N1Cc1c(F)cc(Cl)cc1Oc1ccc(-c2cnc(CN(C)C)n2C)cc1` [Compound 79, (3R, 7S, 10S, 13R)-3-benzyl-6-(4-chloro-2-(4-(2-((dimethylamino)methyl)-1-methyl-1H-imidazol-5-yl)phenoxy)-6-fluorobenzyl)-13-(4-chlorobenzyl)-10-(hydroxymethyl)-7,12-dimethyl-1,6,9,12-tetraazabicyclo[11.3.1]heptadecane-2,5,8,11-tetraone], the IC50 was found to be 0.819 nM and the Max % inhibition is 108.3%.

Take `C[C@H]1C(=O)N[C@@H](CO)C(=O)N[C@@]2(Cc3ccc(Cl)cc3)CCCN(C2)C(=O)[C@H](Cc2cccc(C(F)(F)F)c2)CC(=O)N1Cc1c(F)cc(Cl)cc1Oc1ccc(-c2cnc(CN(C)C)n2C)cc1` [Compound 80, (3R, 7S, 10S, 13R)-6-(4-chloro-2-(4-(2-((dimethylamino)methyl)-1-methyl-1H-imidazol-5-yl)phenoxy)-6-fluorobenzyl)-13-(4-chlorobenzyl)-10-(hydroxymethyl)-7-methyl-3-(3-(trifluoromethyl)benzyl)-1,6,9,12-tetraazabicyclo[11.3.1]heptadecane-2,5,8,11-tetraone]: the IC50 was determined as 0.624 nM and the Max % inhibition was 106.6%.

As for `C[C@H]1C[C@H]([C@@H]2CC(=O)N(Cc3ccc(Cl)cc3Oc3ccc(-c4cnc(CN(C)C)n4C)cc3)[C@@H](C)C(=O)N[C@@H](CO)C(=O)N(C)[C@H](Cc3ccc(Cl)cc3)CN(C)C2=O)c2ccccc21.Cl` [Compound 81, (2S, 5S, 8R, 12S)-1-(4-chloro-2-(4-(2-((dimethylamino)methyl)-1-methyl-1H-imidazol-5-yl)phenoxy)benzyl)-8-(4-chlorobenzyl)-5-(hydroxymethyl)-2,7,10-trimethyl-12-((1R,3S)-3-methyl-2,3-dihydro-1H-inden-1-yl)-1,4,7,10-tetraazacyclotetradecane-3,6,11,14-tetraone], the IC50 stood at 0.95 nM and the Max % inhibition is 105.6%.

As to `C[C@H]1C(=O)N[C@@H](CO)C(=O)N(C)[C@@]2(Cc3ccc(Cl)cc3)CCCN(C2)C(=O)[C@H](CC(F)(F)F)CC(=O)N1Cc1c(F)cc(Cl)cc1Oc1ccc(-c2cnc(CN(C)C)n2C)cc1` [Compound 82, (3S,7S,10S,13R)-6-(4-Chloro-2-(4-(2-((dimethylamino)methyl)-1-methyl-1H-imidazol-5-yl)phenoxy)-6-fluorobenzyl)-13-(4-chlorobenzyl)-10-(hydroxymethyl)-7,12-dimethyl-3-(2,2,2-trifluoroethyl)-1,6,9,12-tetraazabicyclo[11.3.1]heptadecane-2,5,8,11-tetraone], the IC50 was found to be 0.37 nM and the Max % inhibition is on record as 108.5%.

`C[C@H]1C(=O)N[C@@H](CO)C(=O)N[C@@]2(Cc3ccc(Cl)cc3)CCCN(C2)C(=O)[C@H](CC(F)(F)F)CC(=O)N1Cc1ccc(Cl)cc1Oc1ccc(-c2cnc(CN(C)C)n2C)cc1` [Compound 83, (3S,7S,10S,13R)-6-(4-Chloro-2-(4-(2-((dimethylamino)methyl)-1-methyl-1H-imidazol-5-yl)phenoxy)benzyl)-13-(4-chlorobenzyl)-10-(hydroxymethyl)-7-methyl-3-(2,2,2-trifluoroethyl)-1,6,9,12-tetraazabicyclo[11.3.1]heptadecane-2,5,8,11-tetraone]: the IC50 was 0.347 nM and the Max % inhibition was determined as 112.4%.

With `C[C@H]1C(=O)N[C@@H](CO)C(=O)N[C@@]2(Cc3ccc(Cl)cc3)CCCN(C2)C(=O)[C@H]([C@@H]2CCc3ccccc32)CC(=O)N1Cc1ccc(Cl)cc1Oc1ccc(-c2cnc(CN(C)C)n2C)cc1.Cl` [Compound 84, (3S, 7S, 10S, 13R)-6-(4-chloro-2-(4-(2-((dimethylamino)methyl)-1-methyl-1H-imidazol-5-yl)phenoxy)benzyl)-13-(4-chlorobenzyl)-3-((S)-2,3-dihydro-1H-inden-1-yl)-10-(hydroxymethyl)-7-methyl-1,6,9,12-tetraazabicyclo[11.3.1]heptadecane-2,5,8,11-tetraone], the IC50 was found to be 1.68 nM and the Max % inhibition came to 101.9%.

In the case of `COC[C@@H]1NC(=O)[C@H](C)N(Cc2ncc(Cl)cc2Oc2ccc(-c3cnc(CN(C)C)n3C)nc2)C(=O)C[C@@H](Cc2ccccc2)C(=O)N2CCC[C@@](Cc3ccc(Cl)cc3)(C2)N(C)C1=O` [Compound 85], the IC50 is 1.41 nM and the Max % inhibition stood at 101.7%.

With `C[C@H]1C(=O)N[C@@H](CO)C(=O)N[C@@]2(Cc3ccc(Cl)cc3)CCCN(C2)C(=O)[C@H](Cc2ccccc2)CC(=O)N1Cc1c(F)cc(Cl)cc1Oc1ccc(-c2cnc(CN(C)C)n2C)cc1F` [Compound 87, (3R, 7S, 10S, 13R)-3-benzyl-6-(4-chloro-2-(4-(2-((dimethylamino)methyl)-1-methyl-1H-imidazol-5-yl)-2-fluorophenoxy)-6-fluorobenzyl)-13-(4-chlorobenzyl)-10-(hydroxymethyl)-7-methyl-1,6,9,12-tetraazabicyclo[11.3.1]heptadecane-2,5,8,11-tetraone], the IC50 amounted to 0.58 nM and the Max % inhibition is on record as 111.7%.

Values taken from patent US11813306B2, “Cyclic tetramer compounds as proprotein convertase subtilisin/kexin type 9 (PCSK9) inhibitors for the treatment of metabolic disorders” (NOVARTIS AG, priority 2018, dated 2023).
